Experiments:
[1] = system: human NaPi-IIb; assay: Inhibitory effect on 33PO4 uptake into human NaPi-IIb-expressing cell; format: cell-based; conditions: CHO cells stably expressing human NaPi-IIb, 1, 3, 10, or 30 µM
Procedure: CHO cells were transfected with human NaPi-IIb expression plasmids, and a stably human NaPi-IIb-expressing cell line was obtained using G418. The human NaPi-IIb-expressing cells were inoculated to a 96-well plate and incubated overnight in a CO2 incubator. The medium was replaced with buffer A (145 mM choline chloride, 3 mM KCl, 1 mM CaCl2, 0.5 mM MgCl2, 5 mM glucose, and 5 mM MES (pH 6.5)) and then replaced with buffer B (145 mM NaCl, 3 mM KCl, 1 mM CaCl2, 0.5 mM MgCl2, 5 mM glucose, and 5 mM MES (pH 6.5)) supplemented with each test compound at a final concentration of 1,3, 10, or 30 µM or buffer A supplemented with DMSO. After a given time, a 1/20 volume of buffer A containing ^33PO4 was added thereto and reacted at room temperature. After washing with ice-cold buffer A, a liquid scintillator was added to each reaction mixture, and the amount of ^33PO4 uptake was measured using TopCount. The rate of inhibition was determined according to the following expression: [formula]

[2] = system: rat small-intestinal brush border membrane vesicles; assay: Inhibitory effect on 33PO4 uptake into rat small-intestinal brush border membrane vesicles (rapid filtration method); format: biochemical, Wistar female rat; conditions: 1 µM test compound, 33PO4 uptake into rat small-intestinal BBMVs, 60 seconds
Method in brief: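 Uptake was terminated by ice-cold 110 mM NaCl, 1 mM KH2PO4, 10 mM HEPES (pH 7.5) buffer and immediate suction filtration, then washing. Using rat small-intestinal BBMVs, retained 33PO4 was quantified by liquid scintillation counting as transport activity.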

[3] = system: adenine-induced renal failure rat; assay: Suppressive effect on rise in serum phosphorus concentration of adenine-induced renal failure rat (0.1% in feed, 3 days); format: in vivo, Wistar male rat; conditions: feed or water, 72 h, rate of suppression of a rise in serum phosphorus concentration, 0.1% of mass concentration in feed
Excerpt: Test Example 5: Suppressive effect on rise in serum phosphorus concentration of adenine-induced renal failure rat Adenine was forcedly administered orally to each Wistar male rat (7-8 weeks old) to impair renal functions and thereby prepare a hyperphosphatemia model ([…], Nagano N, Burke SK, Fukushima N. Sevelamer hydrochloride prevents ectopic calcification and renal osteodystrophy in chronic renal failure rats. Kidney Int. 2003 Aug; 64 (2): 441-50). Each test compound was mixed at a ratio of 0.1% of mass concentration with feed. The animal was fed with a given amount of the feed for 3 days. A group given feed non-supplemented with a test compound was used as a reference pathological group, and an adenine-unadministered group given feed non-supplemented with a test compound was used as a normal group. 3 days after the start of administration of the test compound, blood was collected from the jugular vein, and serum was collected. Serum phosphorus concentrations were measured by the Fiske-Subbarow method. The rate of suppression of a rise in serum phosphorus concentration was determined according to the following expression: Rate (%) of suppression of a rise in serum phosphorus concentration = (1-[([…]-treatedpathologicalgroup); -(Serumphosphorusconcentrationofthenormalgroup)]/; [(Serumphosphorusconcentrationofthereferencepathologicalgroup)-(Serumphosphorusconcentrationofthenormalgroup)]) × 100 [formula] As a result, each test compound was confirmed to have a suppressive effect on a rise in serum phosphorus concentration. […]

Question: `CN1N(Cc2ccc(OCCNCCS(=O)(=O)O)c(F)c2F)C(=O)C(C(=O)Nc2ccc(C(F)(F)F)cc2-c2cc(C(F)(F)F)ncn2)=C(O)C12CCCC2` [Example 436, 2-[2-[2,3-Difluoro-4-[[10-hydroxy-6-methyl-8-oxo-9-[[4-(trifluoromethyl)-2-[6-(trifluoromethyl)pyrimidin-4-yl]phenyl]carbamoyl]-6,7-diazaspiro[4.5]dec-9-en-7-vl]methyl]phenoxy]ethylamino]ethanesulfonic acid] was tested. Which IC50 [1] did it give?
Answer: 14 µM

Question: And the “Rate of uptake inhibition (%) (1 µM)” value ([2]; 1 µM)?
Answer: 12%

Question: How did the “Rate of uptake inhibition (%) (1 µM)” value [2] turn out when `C[C@]12CCCN1N(Cc1ccc(OCCCCOC[C@H](O)CO)c(F)c1F)C(=O)C(C(=O)Nc1ccc(C(F)(F)F)cc1-c1cc(C(F)(F)F)ncn1)=C2O` [Example 152, (4aR)-1-[[4-[4-[(2R)-2,3-Dihydroxypropoxy]butoxy]-2,3-difluorophenyl]methyl]-4-hydroxy-4a-methyl-2-oxo-N-[4-(trifluoromethyl)-2-[6-(trifluoromethyl)pyrimidin-4-yl]phenyl]-6,7-dihydro-5H-pyrrolo[1,2-b]pyridazine-3-carboxamide] was run?
Answer: 54%

Question: What about the inhibition in vivo at 0.1 %, 0.1 % in feed [3] of the same compound?
Answer: 26%

Question: Which results are given for `CN1[C@@H](C(C)(C)C)C(O)=C(C(=O)Nc2ccc(C(F)(F)F)cc2-c2cc(C(F)(F)F)ncn2)C(=O)N1Cc1ccc(OCCN2CCOCC2)c(F)c1F` [Example 264, (3S)-3-tert-Butyl-1-[[2,3-difluoro-4-(2-morpholin-4-ylethoxy)phenyl]methyl]-4-hydroxy-2-methyl-6-oxo-N-[4-(trifluoromethyl)-2-[6-(trifluoromethyl)pyrimidin-4-yl]phenyl]-3H-pyridazine-5-carboxamide]?
Answer: Rate of uptake inhibition (%) (1 µM) [2]: 48%; inhibition in vivo at 0.1 %, 0.1 % in feed [3]: 15%

Question: Which results are given for `C[C@]12CCCN1N(Cc1ccc(C#CCCCC(=O)O)c(F)c1F)C(=O)C(C(=O)Nc1ccc(C(F)(F)F)cc1-c1cc(C(F)(F)F)ncn1)=C2O` [Example 129, 6-[4-[[(4aR)-4-Hydroxy-4a-methyl-2-oxo-3-[[4-(trifluoromethyl)-2-[6-(trifluoromethyl)pyrimidin-4-yl]phenyl]carbamoyl]-6,7-dihydro-5H-pyrrolo[1,2-b]pyridazin-1-yl]methyl]-2,3-difluorophenyl]hex-5-ynoic acid]?
Answer: Rate of uptake inhibition (%) (1 µM) [2]: 63%; inhibition in vivo at 0.1 %, 0.1 % in feed [3]: 17%

Question: `CN1N(Cc2ccc(OCCN3CCOCC3)c(F)c2F)C(=O)C(C(=O)Nc2ccc(C(F)(F)F)cc2-c2cc(C(F)(F)F)ncn2)=C(O)C12CCCC2` [Example 318, 7-[[2,3-Difluoro-4-(2-morpholin-4-ylethoxy)phenyl]methyl]-10-hydroxy-6-methyl-8-oxo-N-[4-(trifluoromethyl)-2-[6-(trifluoromethyl)pyrimidin-4-yl]phenyl]-6,7-diazaspiro[4.5]dec-9-ene-9-carboxamide] was tested. Which “Rate of uptake inhibition (%) (1 µM)” value [2] did it give?
Answer: 43%

Question: And the inhibition in vivo at 0.1 %, 0.1 % in feed [3]?
Answer: 32%

Question: With `C[C@]12CCCN1N(Cc1ccc(OCCCCCCOC[C@H](O)CO)c(F)c1F)C(=O)C(C(=O)Nc1cnc(C(F)(F)F)nc1-c1ccc(C(F)(F)F)nc1)=C2O` [Example 156, (4aR)-1-[[4-[6-[(2R)-2,3-Dihydroxypropoxy]hexoxy]-2,3-difluorophenyl]methyl]-4-hydroxy-4a-methyl-2-oxo-N-[2-(trifluoromethyl)-4-[6-(trifluoromethyl)pyridin-3-yl]pyrimidin-5-yl]-6,7-dihydro-5H-pyrrolo[1,2-b]pyridazine-3-carboxamide] as the compound, how does the “Rate of uptake inhibition (%) (1 µM)” value [2] read?
Answer: 59%

Question: And the inhibition in vivo at 0.1 %, 0.1 % in feed [3]?
Answer: 21%

Question: With `CN1[C@@H](C(C)(C)C)C(O)=C(C(=O)Nc2ccc(Cl)cc2-c2ccc(C(F)(F)F)nc2)C(=O)N1Cc1ccc(OCCN2CCOCC2)c(F)c1F` [Example 267, (3S)-3-tert-Butyl-N-[4-chloro-2-[6-(trifluoromethyl)pyridin-3-yl]phenyl]-1-[[2,3-difluoro-4-(2-morpholin-4-ylethoxy)phenyl]methyl]-4-hydroxy-2-methyl-6-oxo-3H-pyridazine-5-carboxamide] as the compound, how does the “Rate of uptake inhibition (%) (1 µM)” value [2] read?
Answer: 71%

Question: And the inhibition in vivo at 0.1 %, 0.1 % in feed [3]?
Answer: 18%

Question: `C[C@]12CCCN1N(Cc1ccc(C#CCN3CCOCC3)c(F)c1F)C(=O)C(C(=O)Nc1ccc(C(F)(F)F)cc1-c1ccc(C(F)(F)F)nc1)=C2O` [Example 140, (4aR)-1-[[2,3-Difluoro-4-(3-morpholin-4-ylprop-1-ynyl)phenyl]methyl]-4-hydroxy-4a-methyl-2-oxo-N-[4-(trifluoromethyl)-2-[6-(trifluoromethyl)pyridin-3-yl]phenyl]-6,7-dihydro-5H-pyrrolo[1,2-b]pyridazine-3-carboxamide] was tested. Which “Rate of uptake inhibition (%) (1 µM)” value [2] did it give?
Answer: 77%

Question: What about the inhibition in vivo at 0.1 %, 0.1 % in feed [3] of the same compound?
Answer: 39%

Question: Which results are given for `CN1N(Cc2ccc(OCCN3CCOCC3)c(F)c2F)C(=O)C(C(=O)Nc2ccc(C(F)(F)F)cc2-c2cc(C(F)(F)F)ncn2)=C(O)C12CCC2` [Example 317, 6-[[2,3-Difluoro-4-(2-morpholin-4-ylethoxy)phenyl]methyl]-9-hydroxy-5-methyl-7-oxo-N-[4-(trifluoromethyl)-2-[6-(trifluoromethyl)pyrimidin-4-yl]phenyl]-5,6-diazaspiro[3.5]non-8-ene-8-carboxamide]?
Answer: Rate of uptake inhibition (%) (1 µM) [2]: 57%; inhibition in vivo at 0.1 %, 0.1 % in feed [3]: 22%

Question: `C[C@]12CCCN1N(Cc1ccc(CN3CCOCC3)c(F)c1F)C(=O)C(C(=O)Nc1ccc(C(F)(F)F)cc1-c1ccc(C(F)(F)F)nc1)=C2O.Cl` [Example 164, (4aR)-1-[[2,3-Difluoro-4-(morpholin-4-ylmethyl)phenyl]methyl]-4-hydroxy-4a-methyl-2-oxo-N-[4-(trifluoromethyl)-2-[6-(trifluoromethyl)pyridin-3-yl]phenyl]-6,7-dihydro-5H-pyrrolo[1,2-b]pyridazine-3-carboxamide; hydrochloride] was tested. Which “Rate of uptake inhibition (%) (1 µM)” value [2] did it give?
Answer: 64%

Question: And the inhibition in vivo at 0.1 %, 0.1 % in feed [3]?
Answer: 14%

Question: Which “Rate of uptake inhibition (%) (1 µM)” value [2] does the source give for `COCCN(C)CCOc1ccc(CN2C(=O)C(C(=O)Nc3ccc(C(F)(F)F)cc3-c3cc(C(F)(F)F)ncn3)=C(O)C3(CCCC3)N2C)c(F)c1F` [Example 14, 7-[[2,3-Difluoro-4-[2-[2-methoxyethyl(methyl)amino]ethoxy]phenyl]methyl]-10-hydroxy-6-methyl-8-oxo-N-[4-(trifluoromethyl)-2-[6-(trifluoromethyl)pyrimidin-4-yl]phenyl]-6,7-diazaspiro[4.5]dec-9-ene-9-carboxamide] here?
Answer: 29%

Question: What about the inhibition in vivo at 0.1 %, 0.1 % in feed [3] of the same compound?
Answer: 39%

Question: Which results are given for `CN(C)S(=O)(=O)N1CCC(c2cc(C(F)(F)F)ccc2NC(=O)C2=C(O)[C@@]3(C)CCCN3N(Cc3cccc(F)c3F)C2=O)CC1` [Example 110]?
Answer: IC50 [1]: 19.8 µM; Rate of uptake inhibition (%) (1 µM) [2]: 57%

Question: Which “Rate of uptake inhibition (%) (1 µM)” value [2] does the source give for `Cc1c(C#N)ncnc1-c1cc(C(F)(F)F)ccc1NC(=O)C1=C(O)[C@H](C(C)(C)C)N(C)N(Cc2ccc(OCCN3CCOCC3)c(F)c2F)C1=O` [Example 270, (3S)-3-tert-Butyl-N-[2-(6-cyano-5-methylpyrimidin-4-yl)-4-(trifluoromethyl)phenyl]-1-[[2,3-difluoro-4-(2-morpholin-4-ylethoxy)phenyl]methyl]-4-hydroxy-2-methyl-6-oxo-3H-pyridazine-5-carboxamide] here?
Answer: 75%

Question: And the inhibition in vivo at 0.1 %, 0.1 % in feed [3]?
Answer: 20%

Question: `C[C@]12CCCN1N(Cc1cccc(Cl)c1F)C(=O)C(C(=O)Nc1cc(F)c(Br)c(F)c1)=C2O` [Example 196, (4aR)-N-(4-Bromo-3,5-difluorophenyl)-1-[(3-chloro-2-fluorophenyl)methyl]-4-hydroxy-4a-methyl-2-oxo-6,7-dihydro-5H-pyrrolo[1,2-b]pyridazine-3-carboxamide] was tested. Which “Rate of uptake inhibition (%) (1 µM)” value [2] did it give?
Answer: 90%

Question: And the inhibition in vivo at 0.1 %, 0.1 % in feed [3]?
Answer: 35%

— patent EP2975030B1, “DIHYDROPYRIDAZINE-3,5-DIONE DERIVATIVE” (Chugai Seiyaku Kabushiki Kaisha, priority 2013, dated 2014)
